The record followed here is patent US12421229B2, “Hydropyrido[1,2-α]pyrazine compounds for the treatment of autoimmune disease” (Hoffmann-La Roche Inc., priority 2019, dated 2025).

Each structure is given as a SMILES string.

One data set deals with T1, CYP3A4 (Homo sapiens, UniProt P08684).
T1 construct: tissue BD-Gentest 452117; host or cells: human liver microsomes
The data set can be described thus: CYP inhibition assay in human liver microsome, CYP3A4. Format: in vitro ADME. The following applies: percentage inhibition, substrate Midazolam 5 μM. As to the method: (§1) This is a high throughput screening assay used for assessment of reversible inhibition of CYP2C9, CYP2D6, and CYP3A4 activity of test compounds in human liver microsome (HLM) in early discovery stage.
(§2) 10 mM DMSO stock solutions of test compounds were diluted in DMSO to generate 2 mM intermediate stock solution. 250 nL of intermediate stock solution were transferred in duplicate into 3 separate 384 well microtitre plates (assay-ready plates). A mixture of HLM and each substrate was made up. 45 μL of HLM substrate mix was then transferred to each well of an assay ready plate and mixed. The negative (solvent) and positive controls (standard inhibitor for each CYP) were included in each assay ready plate. The assay ready plate was warmed to 37° C. in an incubator over 10 minutes. 5 μL pre-warmed NADPH regenerating system was added to each incubation well to start the reaction. Final incubation volume was 50 μL. The assay plate then was placed back in the 37° C. incubator. After incubation (10 minutes for CYP2D6) for 5 minutes, incubates were quenched by addition of 50 μL 100% acetonitrile containing internal standards (400 ng/mL 13C6-4′-OH-Diclofenac, 20 ng/mL D3-Dextrorphan and 20 ng/mL D4-1′OH-Midazolam). The supernatants were collected for RapidFire/MS/MS analysis.
(§3) RapidFire online solid phase extraction/sample injection system (Agilent) coupled with API4000 triple quadrupole mass spectrometer (AB Sciex) were used for sample analysis. The mobile phase composed of acetonitrile and water supplemented with 0.1% formic acid. A C4 solid phase extraction cartridge is used for sample separation. MS detection is achieved in positive ion MRM mode.
(§4) Peak areas for substrate, metabolite and internal standard are determined using the RapidFire integrator software (version 3.6.12009.12296). Peak area ratios (PAR) of metabolite and internal standard (stable-labelled metabolite) are then calculated. The measurement window for each experiment is then defined:
(§5) PAR (0% activity)=average PAR for all incubations containing concentrated inhibitor;
(§6) Par (100% activity)=average PAR for all incubations containing no inhibitor (DMSO controls);
(§7) % Activity (test inhibitor)=[PAR(test inhibitor)−PAR(0% activity)/PAR(100% activity)−PAR(0% activity)];
(§8) % Inhibition (test inhibitor)=100−% Activity (test inhibitor).
Background: Liver microsomes are a subcellular fraction often used to study metabolism.

For another data set, the target named is T2, human TLR7 (Homo sapiens, UniProt Q9NYK1).
T2 construct: host or cells: HEK293 (HEK-Blue hTLR7)
T2 sequence (Q9NYK1 27-1049): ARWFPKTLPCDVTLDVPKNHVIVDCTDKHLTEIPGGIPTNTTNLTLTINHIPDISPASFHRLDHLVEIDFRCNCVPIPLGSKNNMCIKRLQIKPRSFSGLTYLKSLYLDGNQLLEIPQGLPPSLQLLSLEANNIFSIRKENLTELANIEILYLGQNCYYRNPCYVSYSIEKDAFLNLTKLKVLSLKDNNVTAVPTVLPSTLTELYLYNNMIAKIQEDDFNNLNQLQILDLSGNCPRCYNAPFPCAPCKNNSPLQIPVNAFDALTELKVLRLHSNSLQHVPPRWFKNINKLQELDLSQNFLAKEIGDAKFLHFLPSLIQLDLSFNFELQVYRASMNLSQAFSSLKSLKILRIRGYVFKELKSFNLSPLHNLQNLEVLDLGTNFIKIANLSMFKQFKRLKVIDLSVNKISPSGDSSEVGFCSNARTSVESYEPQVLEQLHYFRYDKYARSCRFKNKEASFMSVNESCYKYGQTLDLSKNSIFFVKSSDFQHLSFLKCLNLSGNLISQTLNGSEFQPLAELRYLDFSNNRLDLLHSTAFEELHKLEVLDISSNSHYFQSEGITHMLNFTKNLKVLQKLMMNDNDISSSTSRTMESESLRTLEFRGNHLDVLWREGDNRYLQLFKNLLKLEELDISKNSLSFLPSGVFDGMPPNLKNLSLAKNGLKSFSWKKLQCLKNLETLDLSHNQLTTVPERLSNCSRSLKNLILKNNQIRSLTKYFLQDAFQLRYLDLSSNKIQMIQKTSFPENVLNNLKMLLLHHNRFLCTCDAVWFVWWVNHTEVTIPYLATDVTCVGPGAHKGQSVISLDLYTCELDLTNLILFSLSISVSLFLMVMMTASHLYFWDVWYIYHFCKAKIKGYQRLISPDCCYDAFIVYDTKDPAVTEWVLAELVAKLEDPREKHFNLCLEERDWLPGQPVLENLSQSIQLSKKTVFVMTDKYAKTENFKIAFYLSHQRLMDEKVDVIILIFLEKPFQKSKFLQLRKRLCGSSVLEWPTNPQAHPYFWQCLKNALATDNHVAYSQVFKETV
The data set can be described thus: HEK293-Blue-hTLR-7 cells assay. Format: cell-based. The following applies: HEK293-Blue-hTLR7 cells, R848 stimulation, 20 hrs, SEAP reporter; read-out: HEK/hTLR7 IC50. The source says:
A stable HEK293-Blue-hTLR-7 cell line was purchased from InvivoGen (Cat. #: hkb-htlr7, San Diego, California, USA). These cells were originally designed for studying the stimulation of human TLR7 by monitoring the activation of NF-κB. A SEAP (secreted embryonic alkaline phosphatase) reporter gene was placed under the control of the IFN-β minimal promoter fused to five NF-κB and AP-1-binding sites. The SEAP was induced by activating NF-κB and AP-1 via stimulating HEK-Blue hTLR7 cells with TLR7 ligands. Therefore the reporter expression was declined by TLR7 antagonist under the stimulation of a ligand, such as R848 (Resiquimod), for incubation of 20 hrs. The cell culture supernatant SEAP reporter activity was determined using QUANTI-Blue™ kit (Cat. #: rep-qb1, Invivogen, San Diego, Ca, USA) at a wavelength of 640 nm, a detection medium that turns purple or blue in the presence of alkaline phosphatase.
HEK293-Blue-hTLR7 cells were incubated at a density of 250,000˜450,000 cells/mL in a volume of 170 μL in a 96-well plate in Dulbecco's Modified Eagle's medium (DMEM) containing 4.5 g/L glucose, 50 U/mL penicillin, […], […], 2 mM L-glutamine, 10% (v/v) heat-inactivated fetal bovine serum with addition of 20 μL test compound in a serial dilution in the presence of final DMSO at 1% and 10 μL of 20 uM R848 in above DMEM, perform incubation under 37° C. in a CO2 incubator for 20 hrs. Then 20 μL of the supernatant from each well was incubated with 180 μL Quanti-blue substrate solution at 37° C. for 2 hrs and the absorbance was read at 620˜655 nm using a spectrophotometer. The signaling pathway that TLR7 activation leads to downstream NF-κB activation has been widely accepted, and therefore similar reporter assay was modified for evaluating TLR7 antagonist.

Another data set deals with T3, CYP2D6 (Homo sapiens, UniProt P10635).
T3 construct: tissue BD-Gentest 452117; host or cells: human liver microsomes
In words: CYP inhibition assay in human liver microsome, CYP2D6. It counts as in vitro ADME. The following applies: percentage inhibition, substrate Dextromethorphan 5 μM. The method, then: as §1, §2, §3, §4, §5, §6, §7, §8

T1 sequence (P08684 whole entry): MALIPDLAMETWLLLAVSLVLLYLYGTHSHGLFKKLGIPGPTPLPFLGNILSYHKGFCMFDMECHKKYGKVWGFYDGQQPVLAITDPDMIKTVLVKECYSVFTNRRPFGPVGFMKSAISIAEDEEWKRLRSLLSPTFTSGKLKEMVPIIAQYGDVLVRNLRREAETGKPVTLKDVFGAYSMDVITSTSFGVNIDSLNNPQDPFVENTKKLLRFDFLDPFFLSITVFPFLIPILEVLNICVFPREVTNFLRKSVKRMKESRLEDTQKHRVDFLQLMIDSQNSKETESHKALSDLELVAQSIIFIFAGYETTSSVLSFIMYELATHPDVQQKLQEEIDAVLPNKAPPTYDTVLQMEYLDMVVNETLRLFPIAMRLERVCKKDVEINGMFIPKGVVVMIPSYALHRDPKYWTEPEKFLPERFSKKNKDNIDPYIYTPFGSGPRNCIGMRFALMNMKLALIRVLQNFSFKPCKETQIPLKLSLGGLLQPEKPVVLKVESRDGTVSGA
T3 sequence (P10635 whole entry): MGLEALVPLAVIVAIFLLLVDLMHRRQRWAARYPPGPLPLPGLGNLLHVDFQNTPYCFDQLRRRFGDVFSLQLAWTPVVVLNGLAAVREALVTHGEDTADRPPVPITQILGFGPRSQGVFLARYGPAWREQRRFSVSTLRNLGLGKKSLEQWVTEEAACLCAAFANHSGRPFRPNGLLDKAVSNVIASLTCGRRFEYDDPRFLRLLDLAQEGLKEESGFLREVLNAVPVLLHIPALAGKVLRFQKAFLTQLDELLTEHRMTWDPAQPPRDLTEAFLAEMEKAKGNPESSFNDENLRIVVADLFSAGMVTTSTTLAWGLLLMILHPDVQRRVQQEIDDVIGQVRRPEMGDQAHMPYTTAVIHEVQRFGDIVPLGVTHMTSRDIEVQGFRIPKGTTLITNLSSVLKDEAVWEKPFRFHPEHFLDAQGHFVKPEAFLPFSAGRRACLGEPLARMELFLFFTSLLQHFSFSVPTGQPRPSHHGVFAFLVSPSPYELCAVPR

In the case of `[2H]c1ccc2c(N3C[C@@H]4C[C@H](Nc5ccc(C[C@H]6CNCCO6)cc5)CCN4[C@H](C)C3)ccc(C#N)c2n1` [Example 34, 5-[(4R,8R,9aS)-4-methyl-8-[4-[[(2S)-morpholin-2-yl]methyl]anilino]-1,3,4,6,7,8,9,9a-octahydropyrido[1,2-a]pyrazin-2-yl]-2-deuterio-quinoline-8-carbonitrile], at CYP3A4, the “CYP (%) 3A4” value was determined as 3.5%. Moreover, on human TLR7, the IC50 is 47 nM. For the same molecule, the “CYP (%) 2D6” value on CYP2D6 is 2.5%.

`[2H]c1ccc2c(N3C[C@@H]4C[C@H](N5CCN(c6ccncc6)CC5)CCN4[C@H](C)C3)ccc(C#N)c2n1` [Example 37, 5-[(4R,8R,9aS)-4-methyl-8-[4-(4-pyridyl)piperazin-1-yl]-1,3,4,6,7,8,9,9a-octahydropyrido[1,2-a]pyrazin-2-yl]-2-deuterio-quinoline-8-carbonitrile]: the “CYP (%) 3A4” value at CYP3A4 was found to be 32.5%. Also, the IC50 on human TLR7 was 11 nM. At CYP2D6, the “CYP (%) 2D6” value was found to be 14.5%.
